Measurements published in patent US4401660A, “Ester derivatives of 5-O-mycaminosyl tylonolide and method of using same” (Eli Lilly and Company, priority 1981, dated 1983).

Legend:
[1] = system: Haemophilus influenzae Holt; assay: MIC, standard agar-dilution assay (Table II); type: cell-based; parameters: unit not given here; details: ampicillin-sensitive strain
Procedure: (§1) The MIC's in Table II were determined by standard agar-dilution assays. The MIC's in Table III were obtained using a conventional broth-dilution microtiter test.

[2] = system: Haemophilus influenzae R252; assay: MIC, standard agar-dilution assay (Table II); type: cell-based; parameters: unit not given here; details: Haemophilus influenzae R252, ampicillin-resistant strain
Procedure: as §1

[3] = system: Staphylococcus aureus S13E; assay: MIC, standard agar-dilution assay (Table II); type: cell-based; parameters: unit not given here
Procedure: as §1

[4] = system: Staphylococcus aureus V41; assay: MIC, standard agar-dilution assay (Table II); type: cell-based; parameters: unit not given here; details: Staphylococcus aureus V41, penicillin-resistant strain
Procedure: as §1

[5] = system: Staphylococcus aureus X1.1; assay: MIC, standard agar-dilution assay (Table II); type: cell-based; parameters: unit not given here
Procedure: as §1

[6] = system: Staphylococcus aureus X400; assay: MIC, standard agar-dilution assay (Table II); type: cell-based; parameters: unit not given here; details: Staphylococcus aureus X400, methicillin-resistant strain
Procedure: as §1

[7] = system: Staphylococcus epidermidis EPI1; assay: MIC, standard agar-dilution assay (Table II); type: cell-based; parameters: unit not given here
Procedure: as §1

[8] = system: Staphylococcus epidermidis EPI2; assay: MIC, standard agar-dilution assay (Table II); type: cell-based; parameters: unit not given here
Procedure: as §1

[9] = system: Streptococcus Group D 9960; assay: MIC, standard agar-dilution assay (Table II); type: cell-based; parameters: unit not given here
Procedure: as §1

[10] = system: Streptococcus Group D X66; assay: MIC, standard agar-dilution assay (Table II); type: cell-based; parameters: unit not given here
Procedure: as §1

[11] = system: Streptococcus pneumoniae Park I; assay: MIC, standard agar-dilution assay (Table II); type: cell-based; parameters: unit not given here
Procedure: as §1

[12] = system: Streptococcus pyogenes C203; assay: MIC, standard agar-dilution assay (Table II); type: cell-based; parameters: unit not given here
Procedure: as §1

Mycoplasma gallisepticum = assay: MIC, broth-dilution microtiter test (Table III); type: cell-based; parameters: unit not given here
Procedure: as §1

Mycoplasma hyorhinis = assay: MIC, broth-dilution microtiter test (Table III); type: cell-based; parameters: unit not given here
Procedure: as §1

[13] = system: Pasteurella haemolytica 22C; assay: MIC, broth-dilution microtiter test (Table III); type: cell-based; parameters: unit not given here
Procedure: as §1

[14] = system: Pasteurella haemolytica 23C; assay: MIC, broth-dilution microtiter test (Table III); type: cell-based; parameters: unit not given here
Procedure: as §1

[15] = system: Pasteurella haemolytica 41D; assay: MIC, broth-dilution microtiter test (Table III); type: cell-based; parameters: unit not given here
Procedure: as §1

[16] = system: Pasteurella multocida 17E; assay: MIC, broth-dilution microtiter test (Table III); type: cell-based; parameters: unit not given here; details: bovine isolate
Procedure: as §1

[17] = system: Pasteurella multocida 22A; assay: MIC, broth-dilution microtiter test (Table III); type: cell-based; parameters: unit not given here
Procedure: as §1

[18] = system: Pasteurella multocida 40G; assay: MIC, broth-dilution microtiter test (Table III); type: cell-based; parameters: unit not given here
Procedure: as §1

[19] = system: Pasteurella multocida 60A; assay: MIC, broth-dilution microtiter test (Table III); type: cell-based; parameters: unit not given here; details: avian isolate
Procedure: as §1

[20] = system: Pasteurella multocida 68C; assay: MIC, broth-dilution microtiter test (Table III); type: cell-based; parameters: unit not given here
Procedure: as §1

Staphylococcus aureus = assay: MIC, broth-dilution microtiter test (Table III); type: cell-based; parameters: unit not given here
Procedure: as §1

Streptococcus sp. 80 = assay: MIC, broth-dilution microtiter test (Table III); type: cell-based; parameters: unit not given here
Procedure: as §1

Pasteurella multocida = assay: Treatment of Pasteurella infections in chicks (Table V); type: in vivo, one-day-old chicks; details: 30 mg/kg by subcutaneous injection one and four hours post challenge; for mortality at 30 mg/kg: Pasteurella multocida, sc, 4 h, read-out: Deaths in Treated Chicks/Number Treated (converted)
Procedure: Certain OMT ester derivatives are active in vivo against Pasteurella infections. Table V summarizes the results of tests in which the ester derivatives were administered to one-day-old chicks at a dosage level of 30 mg/kg by subcutaneous injection one and four hours post challenge of the chicks with Pasteurella multocida (0.1 ml of a 10^-3 dilution of a 20-hour tryptose broth culture of avian P. multocida given subcutaneously). All nonmedicated infected chicks (ten in each control group) died within 24 hours of Pasteurella challenge.

Mycoplasma synoviae = assay: MIC, broth-dilution microtiter test (Table III); type: cell-based; parameters: unit not given here
Procedure: as §1

| Structure (SMILES) | minimal inhibitory concentration (MIC) [3] | minimal inhibitory concentration (MIC) [4] | minimal inhibitory concentration (MIC) [5] | minimal inhibitory concentration (MIC) [6] | minimal inhibitory concentration (MIC) [7] | minimal inhibitory concentration (MIC) [8] | minimal inhibitory concentration (MIC) [9] | minimal inhibitory concentration (MIC) [10] | minimal inhibitory concentration (MIC) [11] | minimal inhibitory concentration (MIC) [12] | minimal inhibitory concentration (MIC) (Mycoplasma gallisepticum) | minimal inhibitory concentration (MIC) (Mycoplasma hyorhinis) | minimal inhibitory concentration (MIC) [13] | minimal inhibitory concentration (MIC) [14] | minimal inhibitory concentration (MIC) [15] | minimal inhibitory concentration (MIC) [16] | minimal inhibitory concentration (MIC) [17] | minimal inhibitory concentration (MIC) [18] | minimal inhibitory concentration (MIC) [19] | minimal inhibitory concentration (MIC) [20] | also measured |
| --- | --- | --- | --- | --- | --- | --- | --- | --- | --- | --- | --- | --- | --- | --- | --- | --- | --- | --- | --- | --- | --- |
| CCC1OC(=O)CC(O)C(C)C(OC2OC(C)C(O)C(N(C)C)C2OC(C)=O)C(CC=O)CC(C)C(=O)C=CC(C)=CC1COC(=O)CCc1ccccc1 (stereo not shown) [Compound 30] | 0.25 | 0.25 | 0.125 | 0.25 | 0.25 | 0.25 | 0.125 | 0.125 | 0.015 | 0.06 | < 0.05 | 0.195 | 3.12 | 3.12 | 3.12 | 1.56 | 1.56 | 0.78 | 1.56 | 0.78 | minimal inhibitory concentration (MIC) [1]: 0.5; minimal inhibitory concentration (MIC) [2]: 0.5; minimal inhibitory concentration (MIC) (Staphylococcus aureus): 0.195; minimal inhibitory concentration (MIC) (Streptococcus sp. 80): < 0.05; Deaths in Treated Chicks/Number Treated (Pasteurella multocida): 6/10 |
| CCC1OC(=O)CC(O)C(C)C(OC2OC(C)C(O)C(N(C)C)C2OC(C)=O)C(CC=O)CC(C)C(=O)C=CC(C)=CC1COC(=O)Cc1ccc(Cl)cc1 (stereo not shown) [Compound 31, 2'-O-Acetyl-23-O-(p-chlorophenylacetyl)-OMT] | 0.125 | 0.125 | 0.125 | 0.25 | 0.125 | 0.25 | 0.125 | 0.125 | 0.03 | 0.125 | < 0.05 | 3.12 | 1.56 | 1.56 | 3.12 | 1.56 | 1.56 | 1.56 | 0.78 | 0.78 | minimal inhibitory concentration (MIC) (Mycoplasma synoviae): < 0.05; minimal inhibitory concentration (MIC) (Staphylococcus aureus): < 0.05; minimal inhibitory concentration (MIC) (Streptococcus sp. 80): < 0.05; mortality at 30 mg/kg (Pasteurella multocida): 100% |
| CCC1OC(=O)CC(O)C(C)C(OC2OC(C)C(O)C(N(C)C)C2O)C(CC=O)CC(C)C(=O)C=CC(C)=CC1COC(=O)Cc1ccc(Cl)cc1 (stereo not shown) [Compound 32, 23-O-(p-Chlorophenylacetyl)-OMT] | 0.125 | 0.25 | 0.125 | 0.25 | 0.125 | 0.25 | 0.125 | 0.125 | 0.03 | 0.06 | < 0.05 | 3.12 | 1.56 | 3.12 | 3.12 | 1.56 | 0.78 | 1.56 | 0.78 | 0.39 | minimal inhibitory concentration (MIC) (Mycoplasma synoviae): < 0.05; minimal inhibitory concentration (MIC) (Staphylococcus aureus): 0.097; minimal inhibitory concentration (MIC) (Streptococcus sp. 80): 0.097; mortality at 30 mg/kg (Pasteurella multocida): 20% |
| CCC1OC(=O)CC(O)C(C)C(OC2OC(C)C(OC(C)=O)C(N(C)C)C2OC(C)=O)C(CC=O)CC(C)C(=O)C=CC(C)=CC1COC(=O)[C@H](O)c1ccccc1 (stereo partly drawn) [Compound 41, 2',4'-Di-O-acetyl-23-O-(D-mandeloyl)-OMT] | 0.25 | 0.25 | 0.125 | 0.5 | 0.25 | 0.25 | 0.25 | 0.125 | 0.03 | 0.06 | 0.195 | 12.5 | 6.25 | 6.25 | 6.25 | 3.12 | 3.12 | 3.12 | 3.12 | 3.12 | minimal inhibitory concentration (MIC) (Mycoplasma synoviae): 0.39; minimal inhibitory concentration (MIC) (Staphylococcus aureus): 0.78; minimal inhibitory concentration (MIC) (Streptococcus sp. 80): 0.195; mortality at 30 mg/kg (Pasteurella multocida): 100% |
| CCC1OC(=O)CC(O)C(C)C(OC2OC(C)C(OC(C)=O)C(N(C)C)C2OC(C)=O)C(CC=O)CC(C)C(=O)C=CC(C)=CC1COC(=O)Cc1cccnc1 (stereo not shown) [Compound 43, 2',4'-Di-O-acetyl-23O-(3-pyridylacetyl)-OMT] | 0.25 | 0.5 | 0.25 | 0.5 | 0.25 | 0.5 | 0.25 | 0.25 | 0.06 | 0.06 | 0.78 | 0.78 | 6.25 | 6.25 | 3.12 | 3.12 | 3.12 | 3.12 | 3.12 | 1.56 | minimal inhibitory concentration (MIC) (Mycoplasma synoviae): < 0.05; minimal inhibitory concentration (MIC) (Staphylococcus aureus): 0.39; minimal inhibitory concentration (MIC) (Streptococcus sp. 80): 0.195; mortality at 30 mg/kg (Pasteurella multocida): 80% |
| CCC1OC(=O)CC(O)C(C)C(OC2OC(C)C(OC(C)=O)C(N(C)C)C2OC(C)=O)C(CC=O)CC(C)C(=O)C=CC(C)=CC1COS(=O)(=O)c1ccc(NC(C)=O)cc1 (stereo not shown) [Compound 47, 23-O-(p-Acetamidobenzenesulfonyl)-2',4'-di-O-acetyl-OMT] | 1 | 2 | 1 | 2 | 1 | 2 | 1 | 1 | 0.125 | 0.125 | 0.195 | 12.5 | 12.5 | 12.5 | 12.5 | 6.25 | 12.5 | 12.5 | 3.12 | 3.12 | minimal inhibitory concentration (MIC) (Mycoplasma synoviae): 1.56; minimal inhibitory concentration (MIC) (Staphylococcus aureus): 0.78; minimal inhibitory concentration (MIC) (Streptococcus sp. 80): < 0.05; mortality at 30 mg/kg (Pasteurella multocida): 90% |
